Source: patent publication US6277872A, “Oxadiazoles, processes for their preparation and their use as medicaments” (Boehringer Ingelheim KG, priority 1996, dated 2001)

Columns and labels:
Histamine H1 receptor = target: T1, Histamine H1 receptor (Cavia porcellus, UniProt P31389); assay: Histamine H1 receptor binding study; settings: test concentration typically 10 μM; read-out: H1 Inh. [%]
T1 construct: from tissue
Excerpt: Table 5 summarises the inhibitory values on the above receptors:

[1] = test system: "Na+ channel site 2"-binding site; assay: Binding to the Na+ channel site 2 binding site ([3H]-BTX); settings: test concentration typically 10 μM
Procedure: (§1) The tests were typically carried out at a test concentration of 10 μM.

Sigma receptor = Sigma receptor binding study; settings: test concentration typically 10 μM
Procedure: as §1

[2] = test system: permanent focal cerebral ischaemia (MCAO); assay: Stroke model in the rat, permanent focal cerebral ischaemia by occlusion of the arteria cerebri media (MCAO); type: in vivo
Excerpt: A permanent focal cerebral ischaemia was induced by surgical occlusion of the arteria cerbri media (MCAO) (based on A. Tamura, D. I. Graham, J. McCulloch and G. M. Teasdale, J. Cereb. Blood Flow Metab. 1 (1981) 53-60).

AMPA receptor = assay: Inhibition of the cainate-induced signal at the AMPA receptor, electrophysiology on neuronal cells (Patch-Clamp-Method); type: cell-based; settings: test concentration of 100 μM
Procedure: The tests were carried out at a test concentration of 100 μM.

T1 sequence (P31389 whole entry): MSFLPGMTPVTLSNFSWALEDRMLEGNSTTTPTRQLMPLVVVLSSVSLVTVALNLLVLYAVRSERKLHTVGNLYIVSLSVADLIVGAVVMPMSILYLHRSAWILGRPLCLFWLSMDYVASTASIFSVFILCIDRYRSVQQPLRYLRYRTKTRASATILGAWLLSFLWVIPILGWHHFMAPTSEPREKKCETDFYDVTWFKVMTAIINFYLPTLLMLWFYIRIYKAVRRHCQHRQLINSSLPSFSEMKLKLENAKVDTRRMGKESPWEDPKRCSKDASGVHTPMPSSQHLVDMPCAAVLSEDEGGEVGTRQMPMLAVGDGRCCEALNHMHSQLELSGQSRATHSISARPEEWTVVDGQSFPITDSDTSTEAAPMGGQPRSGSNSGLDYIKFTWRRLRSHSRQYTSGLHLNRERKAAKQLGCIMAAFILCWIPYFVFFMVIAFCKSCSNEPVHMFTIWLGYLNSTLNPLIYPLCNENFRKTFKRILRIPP

inhibition at 10 µM (Histamine H1 receptor) [%] | Na+-channel Inh. [%] ([3H]-BTX) [1] | Sigma Inh. [%] (Sigma receptor) | Compound | volume of the lesion [2] | AMPA Inh. [%] (inhibiting the cainate-induced signal at the AMPA receptor) (AMPA receptor)
90 | 54 | 49 | CN(C)CCOc1ccccc1-c1nc(-c2ccco2)no1 [Example 57, 5-{2-[2-(N,N-Dimethylamino)-ethyl]oxy-phenyl}-3-(2-furyl)-1,2,4-oxadiazole] | – | 51
88 | 99 | 76 | CN(C)CCOc1ccccc1-c1nc(-c2ccccc2Br)no1 [Example 64, 5-{2-[2-(N,N-Dimethylamino)-ethyl]oxy-phenyl}-3-(2-bromo-phenyl)-1,2,4-oxadiazole] | – | 65
74 | 100 | 79 | Cc1cccc(-c2nc(-c3ccccc3)no2)c1OCCN(C)C [Example 68, 5-{2-[2-(N,N-Dimethylamino)-ethyl]oxy-3-methyl-phenyl}-3-phenyl-1,2,4-oxadiazole] | – | 81

Further lines, the compound ahead of its results:

Compound | inhibition at 10 µM (Histamine H1 receptor) [%] | Na+-channel Inh. [%] ([3H]-BTX) [1] | Sigma Inh. [%] (Sigma receptor) | volume of the lesion [2] | AMPA Inh. [%] (inhibiting the cainate-induced signal at the AMPA receptor) (AMPA receptor)
CN(C)CCOc1ccccc1-c1nc(-c2ccccc2)no1 [Example 2, 5-{2-[2-(N,N-dimethylamino)ethyl]oxy-phenyl}-3-phenyl-1,2,4-oxadiazole] | 99 | 86 | 62 | reduce the volume of the lesion significantly | 86
CN(C)CCOc1ccccc1-c1nc(-c2cccc(Br)c2)no1 [Example 48, 5-{2-[2-(N,N-Dimethylamino)-ethyl]oxy-phenyl}-3-(3-bromophenyl)-1,2,4-oxadiazole] | 78 | 85 | 74 | – | 85
CN(C)CCOc1ccccc1-c1nc(-c2cccc(Cl)c2)no1 [Example 59, 5-{2-[2-(N,N-Dimethylamino)-ethyl]oxy-phenyl}-3-(3-chlorophenyl)-1,2,4-oxadiazole] | 84 | 70 | 82 | – | 54
Cc1ccc(-c2nc(-c3ccccc3)no2)c(OCCN(C)C)c1 [Example 67, 5-{2-[2-(N,N-Dimethylamino)-ethyl]oxy4-methyl-phenyl}-3-phenyl-1,2,4-oxadiazole] | 90 | 92 | 54 | – | 28
